Data reported in US20220340983A1, “SYSTEMS AND ASSAYS FOR IDENTIFYING PU.1 INHIBITORS” (Massachustts Institute of Technology, priority 2019, published 2022).
Values belong to the compound of their own block, whether it stands above or below them. Starred links: 1 amine or outer side, 2 acyl side, 3 side chain; linkers in the order of their positions; H or OH if unused. Positions of bridges follow the written chain, without caps; N, C: chain ends. Non-standard residues stand in square brackets, D forms with d. Residues, ends and D or L forms follow the SMILES beside them. Chains are numbered I, II in the order given. Actinocin(9to1) = Cc1c2oc3c(C)ccc(C(=O)[*:1])c3nc-2c(C(=O)[*:2])c(N)c1=O; NMeV = CN[C@H](C(=O)O)C(C)C; Sar = CNCC(=O)O

What was measured:
[1] = system: BV2 PU.1-Luciferase cells; experiment: Cell viability (Hoechst staining) in BV2 PU.1-Luciferase cells; type: cell-based, mouse
Protocol: The BV2 PU.1-Luciferase cells (referred to as “cells” from here onward) were plated into a 384-well plate, using an automatic dispenser, 2000 cells per well in 30 μL of media composed of RPMI (Sigma-Aldrich), 10% FBS, 1% PenStrep (50 mg/mL) and 1% G418 (50 mg/mL) was plated. […] For reproducibility, each pin array with 384 compounds was added to 4 plates of cells. The cells and compounds were incubated at 37° C. for a period of time sufficient for the compounds to have an effect on the cells (about 2 days). Subsequently, automatic of 30 μL of BrightGlo (Promega) was dispensed into 2 of the 4 plates, in order to lyse the cells and drive the luminescence reaction whereafter the luminescence intensity was measured by a plate reader (Perkin Elmer EnVision). The two other plates were fixed by automatically dispensing 30 μL of 10% formaldehyde with 2μL Hoechst per 1 mL formaldehyde which were left at room temperature for one hour, followed by plate reading (Acumen (TTPLabTech)). A compound transfer and treatment would be repeated if reproducibility between the luminescence plates and/or the fixed Hoechst plates was lacking. […] Luminescence values used were corrected for crosstalk. Hoechst values were total fluorescence area per well. Determination of a positive hit considered both the reduction of luminescence as well as a possible confounding reduction in cell viability. […]

[2] = system: HEK293 CMV-Luciferase cells; experiment: Cell viability (Hoechst staining) in HEK293 CMV-Luciferase cells; settings: for cell viability (Hoechst) (FIG. 2D): HEK293 CMV-Luciferase cell line, 1 μM; for cell viability (Hoechst-staining): HEK293 CMV-Luciferase line, 2-day incubation, actinomycin D, puromycin, 119113 10 μM, DB2313 2.5 μM
Protocol: Assays were conducted for percent luminescence and cell viability (Hoechst-staining) after a 2-day incubation under the following conditions. As negative controls pure DMSO and “mock” conditions (where nothing is added to the cells) were used.

[3] = system: PU.1 dependent gene expression; experiment: RT-qPCR of mRNA levels in BV2 PU.1-Luciferase cells (validation round 3); type: cell-based, mouse; settings: 2-day treatment
Protocol: The Asinex1 and ChemDiv6 libraries contain molecules with unknown biological properties, but with low toxicity, high stability, and a broad structural diversity used to generate structure-activity-relationships (SAR) of the PU.1 inhibitors. […] In order to obtain the SAR, three rounds of validation were performed. In round 1, false-positive, non-specific luciferase quencher molecules were excluded using the commercially available HEK293 CMV-Luciferase line that constitutively expresses luciferase under the CMV promoter. In round 2, weak (non-significant) hits were eliminated according to degree of PU.1 inhibition in the absence of cell death. In round 3, drugs were selected that reduce PU.1-dependent gene expression with RT-qPCR.

[4] = molecular target: T1, PU.1 (Mus musculus, UniProt P17433); experiment: Luciferase assay (luminescence) in BV2 PU.1-Luciferase reporter cells; type: cell-based; settings: for IC50: luminescence reduction in BV2 PU.1-Luciferase cells, concentration-response, Hill's equation
T1 construct: endogenous in cells; host or cells: BV2 PU.1-Luciferase (mouse microglial BV2 with a 5xLBB-luciferase reporter integrated at ROSA26)
Description: PU.1 belongs to a group of transcription factors that all bind to the middle 5′-GGAA-3′ sequence. The flanking A/T rich sequence is crucial for conferring PU.1 selective binding. The flanking sequence requires unique structural properties of PU.1 and can therefore be targeted by drugs acting as allosteric inhibitors that prevent PU.1 from binding to the LBB. In order to achieve robust PU.1 binding, five tandem copies of the LBBs (5×LBB) were inserted into the luciferase promoter of the pGL4.23 plasmid. The region containing the five LBBs (5×LBB) was then subcloned into the pROSA26-1 plasmid (together with a PGKneo bpA plasmid for Neomycin/G418 resistance) that allows stable integration in chromosome 6 of the immortalized mouse microglial BV2 cell line (FIG. 2B). The stable cell line was created by selection with G418.
The BV2 PU.1-Luciferase cells (referred to as “cells” from here onward) were plated into a 384-well plate, using an automatic dispenser, 2000 cells per well in 30 μL of media composed of RPMI (Sigma-Aldrich), 10% FBS, 1% PenStrep (50 mg/mL) and 1% G418 (50 mg/mL) was plated. A robotic arm was used to transfer compounds in a 384-well format using a pin array into the plate containing the cells (here, 33 nL was transferred from a drug library containing 10 mM concentration of drugs for a final concentration of 10 μM per well). For reproducibility, each pin array with 384 compounds was added to 4 plates of cells. […] Subsequently, automatic of 30 μL of BrightGlo (Promega) was dispensed into 2 of the 4 plates, in order to lyse the cells and drive the luminescence reaction whereafter the luminescence intensity was measured by a plate reader (Perkin Elmer EnVision). The two other plates were fixed by automatically dispensing 30 μL of 10% formaldehyde with 2μL Hoechst per 1 mL formaldehyde which were left at room temperature for one hour, followed by plate reading (Acumen (TTPLabTech)). A compound transfer and treatment would be repeated if reproducibility between the luminescence plates and/or the fixed Hoechst plates was lacking. The drugs were selected and ranked according to the criteria described in FIG. 13. Luminescence values used were corrected for crosstalk. Hoechst values were total fluorescence area per well. Determination of a positive hit considered both the reduction of luminescence as well as a possible confounding reduction in cell viability. The formula used was y=(value−meanvalue)/stddev. […] Compounds were excluded if cell viability was reduced >2 standard deviations from the mean, using the same formula. The positive hits were then validated in multiple steps in order to identify true PU.1 inhibitors.
The degree of luminescence reduction of the hits was plotted with significant effective area under the curve in order to obtain an IC50.

[5] = system: HEK293 CMV-Luciferase cells; experiment: Luminescence in HEK293 CMV-Luciferase control line (luciferase quencher counter-screen); type: cell-based
Description: The IACS Selleck Known Bioactive library (2,100 compounds) was screened and there 35 hits were identified (˜1.7% hit rate), the Asinex1 library (12,000 compounds) was screened and 60 hits were identified (˜0.5% hit rate), and the ChemDiv6 library (44,000 compounds) was screened and 169 hits were identified (˜0.4% hit rate). The Selleck library contains drugs approved by the United States Food and Drug Administration (FDA) with known intracellular mechanisms of action which will give instant insight into pathways that block PU.1 activity. The Asinex1 and ChemDiv6 libraries contain molecules with unknown biological properties, but with low toxicity, high stability, and a broad structural diversity used to generate structure-activity-relationships (SAR) of the PU.1 inhibitors. SAR is used to design new drug libraries containing only molecules with similar structures as previous hits. In order to obtain the SAR, three rounds of validation were performed. In round 1, false-positive, non-specific luciferase quencher molecules were excluded using the commercially available HEK293 CMV-Luciferase line that constitutively expresses luciferase under the CMV promoter. In round 2, weak (non-significant) hits were eliminated according to degree of PU.1 inhibition in the absence of cell death. In round 3, drugs were selected that reduce PU.1-dependent gene expression with RT-qPCR.

[6] = molecular target: T1, PU.1; experiment: Luciferase assay (luminescence) in BV2 PU.1-Luciferase reporter cells; type: cell-based; settings: BV2 PU.1-Luciferase cells, 1 μM

SMILES: Cc1c2oc3c(C)ccc(C(=O)N[C@@H]4C(=O)N[C@H](C(C)C)C(=O)N5CCC[C@H]5C(=O)N(C)CC(=O)N(C)[C@@H](C(C)C)C(=O)O[C@@H]4C)c3nc-2c(C(=O)N[C@@H]2C(=O)N[C@H](C(C)C)C(=O)N3CCC[C@H]3C(=O)N(C)CC(=O)N(C)[C@@H](C(C)C)C(=O)O[C@@H]2C)c(N)c1=O [Actinomycin D] (I: T[dV]P[Sar][NMeV] / II: T[dV]P[Sar][NMeV]; ester I:1-I:C, II:1-II:C; linker I:N-II:N via Actinocin(9to1))
cell viability (Hoechst) (FIG. 2D) ([1]; BV2 PU.1-Luciferase cells, 1 μM): toxic
cell viability (Hoechst-staining) ([1]; BV2 PU.1-Luciferase line, 2-day incubation, actinomycin D, puromycin, 119113 10 μM, DB2313 2.5 μM): reduced cell viability
cell viability (Hoechst) (FIG. 2D) [2]: toxic
cell viability (Hoechst-staining) [2]: reduced cell viability

SMILES: CC(C)N=C(N)c1ccc2nc(-c3ccc(OCc4cccc(COc5ccc(-c6nc7ccc(C(N)=NC(C)C)cc7[nH]6)cc5)c4F)cc3)[nH]c2c1 [DB2313, reference compound]
luminescence (FIG. 2D) ([5]; HEK293 CMV-Luciferase cell line, 1 μM): only in the BV2 PU.1-Luciferase line
percent luminescence ([5]; HEK293 CMV-Luciferase line, 2-day incubation, 119113 10 μM, DB2313 2.5 μM): no effect
mRNA levels Apoe [3]: 0.600 multiples of 1×
mRNA levels IL1β [3]: 0.460 multiples of 1×
mRNA levels Lucif. [3]: 0.340 multiples of 1×
mRNA levels Spi1 [3]: 0.820 multiples of 1×
mRNA levels Trem2 [3]: 1.030 multiples of 1×
mRNA levels Tyrobp [3]: 1.030 multiples of 1×
cell viability (Hoechst) (FIG. 2D) [2]: only in the BV2 PU.1-Luciferase line
cell viability (Hoechst-staining) [2]: no effect
luminescence (FIG. 2D) [6]: reduced luminescence
percent luminescence ([4]; BV2 PU.1-Luciferase line, 2-day incubation, 119113 10 μM, DB2313 2.5 μM): reduction in luminescence

SMILES: CCOC(=O)O[C@]1(C(=O)OCCl)CC[C@H]2[C@@H]3CCC4=CC(=O)C=C[C@]4(C)[C@H]3[C@@H](O)C[C@@]21C [Loteprednol, reference compound]
mRNA levels Apoe [3]: 1.579 multiples of 1×
mRNA levels IL1β [3]: 0.805 multiples of 1×
mRNA levels Lucif. [3]: 0.265 multiples of 1×
mRNA levels Spi1 [3]: 1.167 multiples of 1×
mRNA levels Trem2 [3]: 0.979 multiples of 1×
mRNA levels Tyrobp [3]: 0.927 multiples of 1×
IC50 [4]: 3 nM

SMILES: COc1ccc(C[C@H](N)C(=O)N[C@H]2[C@@H](O)[C@H](n3cnc4c(N(C)C)ncnc43)O[C@@H]2CO)cc1 [puromycin]
cell viability (Hoechst) (FIG. 2D) [2]: ineffective
cell viability (Hoechst-staining) [2]: resistant

Now from value to compound, other results behind:

IC50 [4]: 663 nM
SMILES: CC(=NCCCn1ccnc1)c1c(C(F)(F)F)[nH]n(-c2nc3ccccc3s2)c1=O [Compound E01]
mRNA levels Apoe [3]: 0.823 multiples of 1×
mRNA levels IL1β [3]: 0.986 multiples of 1×
mRNA levels Lucif. [3]: 0.416 multiples of 1×
mRNA levels Spi1 [3]: 0.912 multiples of 1×
mRNA levels Trem2 [3]: 0.903 multiples of 1×
mRNA levels Tyrobp [3]: 0.988 multiples of 1×

IC50 [4]: 3 nM
SMILES: C[C@@H]1C[C@H]2[C@@H]3CCC4=CC(=O)C=C[C@]4(C)[C@@]3(Cl)[C@@H](O)C[C@]2(C)[C@@]1(O)C(=O)CCl [Mometasone, reference compound]
mRNA levels Apoe [3]: 1.444 multiples of 1×
mRNA levels IL1β [3]: 0.531 multiples of 1×
mRNA levels Lucif. [3]: 0.520 multiples of 1×
mRNA levels Spi1 [3]: 1.016 multiples of 1×
mRNA levels Trem2 [3]: 1.051 multiples of 1×
mRNA levels Tyrobp [3]: 1.343 multiples of 1×
